Measured values reported in patent US8828401B2, “Cytotoxic peptides and antibody drug conjugates thereof” (Pfizer Inc., priority 2011, dated 2014).
Starred links: 1 amine or outer side, 2 acyl side, 3 side chain; linkers in the order of their positions; H or OH if unused. Non-standard residues stand in square brackets, D forms with d. Residues, ends and D or L forms follow the SMILES beside them. *: point of attachment. Dolaproine = CO[C@@H]([C@@H]1CCCN1)[C@@H](C)C(=O)O; X12 = O=C([C@@H](N[*:1])[C@@H]1Cc2ccccc21)[*:2]; Dil = CC[C@H](C)[C@H](NC)[C@@H](CC(=O)O)OC; Phe(4-NH2) = Nc1ccc(C[C@H](N)C(=O)O)cc1; X10 = C[C@@H](N*)[C@@H](O)c1ccccc1; NMeαMePro = CN1CCC[C@@]1(C)C(=O)*; Ac4c(3-oxa) = NC1(C(=O)O)COC1; αMeP = C[C@@]1(C(=O)O)CCCN1; dIva = CC[C@@](C)(N)C(=O)O; X1 = CN1CCC[C@]1(C)C(=O)*; NMeAib = CNC(C)(C)C(=O)O; X8 = C1=CC=CC(CCN*)C=C1; Aib = CC(C)(N)C(=O)O; X14 = c1[nH]nnc1CN*

What was measured:
N87 (gastric cancer) = assay: In vitro cell assay, MTS cell viability 96 hours after treatment; format: cell-based; settings: read-out: N87 GMEAN IC50, N87 cells; geometric mean; cytotoxic peptides
Experimental: (§1) Cells were treated with 3-fold serially diluted antibody-drug conjugates or free compounds (i.e., no antibody conjugated to the drug) in duplicate at 10 concentrations. Cell viability was determined by CellTiter 96® AQueous One Solution Cell Proliferation MTS Assay (Promega, Madison Wis.) 96 hours after treatment. Relative cell viability was determined as percentage of untreated control.

[1] = tested on: MDA-MB-361-DYT2 (breast cancer); assay: as above; format: cell-based; settings: read-out: MDA-MB-361-DYT2 GMEAN IC50, MDA-MB-361-DYT2 cells; geometric mean; cytotoxic peptides
Experimental: as §1

Structure (SMILES): CC[C@H](C)[C@@H]([C@@H](CC(=O)N1CCC[C@H]1[C@H](OC)[C@@H](C)C(=S)N[C@@H](Cc1ccccc1)c1nccs1)OC)N(C)C(=O)[C@@H](NC(=O)[C@@H](NC)C(C)C)C(C)C [#26, N-methyl-L-valyl-N-[(3R,4S,5S)-3-methoxy-1-{(2S)-2-[(1R,2R)-1-methoxy-2-methyl-3-{[(1S)-2-phenyl-1-(1,3-thiazol-2-yl)ethyl]amino}-3-thioxopropyl]pyrrolidin-1-yl}-5-methyl-1-oxoheptan-4-yl]-N-methyl-L-valinamide]
- IC50 (N87 (gastric cancer)): 0.543 nM
- IC50 [1]: 1.04 nM

Structure (SMILES): CC[C@H](C)[C@@H]([C@@H](CC(=O)N1CCC[C@H]1[C@H](OC)[C@@H](C)C(=S)NCCc1ccccc1)OC)N(C)C(=O)[C@@H](NC(=O)[C@@H](NC)C(C)C)C(C)C [#36, N-methyl-L-valyl-N-{(3R,4S,5S)-3-methoxy-1-[(2S)-2-{(1R,2R)-1-methoxy-2-methyl-3-[(2-phenylethyl)amino]-3-thioxopropyl}pyrrolidin-1-yl]-5-methyl-1-oxoheptan-4-yl}-N-methyl-L-valinamide]
- IC50 (N87 (gastric cancer)): 1.21 nM
- IC50 [1]: 1.11 nM

Structure (SMILES): CC[C@H](C)[C@@H]([C@@H](CC(=O)N1CCC[C@H]1[C@H](OC)[C@@H](C)C(=S)N[C@@H](Cc1ccccc1)C(=O)OC)OC)N(C)C(=O)[C@@H](NC(=O)C(C)(C)N)C(C)C [#45, 2-methylalanyl-N-[(3R,4S,5S)-3-methoxy-1-{(2S)-2-[(1R,2R)-1-methoxy-3-{[(2S)-1-methoxy-1-oxo-3-phenylpropan-2-yl]amino}-2-methyl-3-thioxopropyl]pyrrolidin-1-yl}-5-methyl-1-oxoheptan-4-yl]-N-methyl-L-valinamide]
- IC50 (N87 (gastric cancer)): 0.385 nM
- IC50 [1]: 0.415 nM

Structure (SMILES): CC[C@H](C)[C@@H]([C@@H](CC(=O)N1CCC[C@H]1[C@H](OC)[C@@H](C)C(=O)NCCC1C=CC=CC=C1)OC)N(C)C(=O)[C@@H](NC(=O)C(C)(C)N)C(C)C [#66, 2-Methylalanyl-N-[(3R,4S,5S)-1-{(2S)-2-[(1R,2R)-3-{[2-(cyclohepta-2,4,6-trien-1-yl)ethyl]amino}-1-methoxy-2-methyl-3-oxopropyl]pyrrolidin-1-yl}-3-methoxy-5-methyl-1-oxoheptan-4-yl]-N-methyl-L-valinamide] (H-[Aib]V[Dil][Dolaproine]-X8)
- IC50 [1]: 0.334 nM

Structure (SMILES): CC[C@H](C)[C@@H]([C@@H](CC(=O)N1CCC[C@H]1[C@H](OC)[C@@H](C)C(=O)N[C@@H](Cc1ccccc1)C(=O)OC)OC)N(C)C(=O)[C@@H](NC(=O)C(C)(C)N)C(C)C [#70, 2-methylalanyl-N-[(3R,4S,5S)-3-methoxy-1-{(2S)-2-[(1R,2R)-1-methoxy-3-{[(2S)-1-methoxy-1-oxo-3-phenylpropan-2-yl]amino}-2-methyl-3-oxopropyl]pyrrolidin-1-yl}-5-methyl-1-oxoheptan-4-yl]-N-methyl-L-valinamide] (H-[Aib]V[Dil][Dolaproine]F-OMe)
- IC50 (N87 (gastric cancer)): 0.327 nM
- IC50 [1]: 0.225 nM

Structure (SMILES): CC[C@H](C)[C@@H]([C@@H](CC(=O)N1CCC[C@H]1[C@H](OC)[C@@H](C)C(=O)N[C@@H](Cc1ccccc1)C(=O)OC)OC)N(C)C(=O)[C@@H](NC(=O)C(C)(C)CN)C(C)C [#126, methyl N-[(2R,3R)-3-{(2S)-1-[(3R,4S,5S)-4-{[N-(3-amino-2,2-dimethylpropanoyl)-L-valyl](methyl)amino}-3-methoxy-5-methylheptanoyl]pyrrolidin-2-yl}-3-methoxy-2-methylpropanoyl]-L-phenylalaninate]
- IC50 (N87 (gastric cancer)): 0.375 nM
- IC50 [1]: 0.454 nM

Structure (SMILES): CC[C@H](C)[C@@H]([C@@H](CC(=O)N1CCC[C@H]1[C@H](OC)[C@@H](C)C(=O)N[C@H](C)[C@@H](O)c1ccccc1)OC)N(C)C(=O)[C@@H](NC(=O)[C@]1(C)CCCN1)C(C)C [#134, 2-methyl-L-prolyl-N-[(3R,4S,5S)-1-{(2S)-2-[(1R,2R)-3-{[(1S,2R)-1-hydroxy-1-phenylpropan-2-yl]amino}-1-methoxy-2-methyl-3-oxopropyl]pyrrolidin-1-yl}-3-methoxy-5-methyl-1-oxoheptan-4-yl]-N-methyl-L-valinamide] (H-[αMeP]V[Dil][Dolaproine]-X10)
- IC50 (N87 (gastric cancer)): 0.115 nM
- IC50 [1]: 0.134 nM

Structure (SMILES): CC[C@H](C)[C@@H]([C@@H](CC(=O)N1CCC[C@H]1[C@H](OC)[C@@H](C)C(=O)N[C@H](C)[C@@H](O)c1ccccc1)OC)N(C)C(=O)[C@@H](NC(=O)C(C)(C)NC)C(C)C [#145, N,2-dimethylalanyl-N-{(1S,2R)-4-{(2S)-2-[(1R,2R)-3-{[(1R,2S)-2-hydroxy-1-methyl-2-phenylethyl]amino}-1-methoxy-2-methyl-3-oxopropyl]pyrrolidin-1-yl}-2-methoxy-1-[(1S)-1-methylpropyl]-4-oxobutyl}-N-methyl-L-valinamide] (H-[NMeAib]V[Dil][Dolaproine]-X10)
- IC50 (N87 (gastric cancer)): 0.167 nM
- IC50 [1]: 0.229 nM

Structure (SMILES): CC[C@H](C)[C@@H]([C@@H](CC(=O)N1CCC[C@H]1[C@H](OC)[C@@H](C)C(=O)N[C@@H](Cc1ccccc1)C(=O)OC)OC)N(C)C(=O)[C@@H](NC(=O)[C@](C)(N)CC)C(C)C [#149, D-isovalyl-N-{(1S,2R)-4-{(2S)-2-[(1R,2R)-3-{[(1S)-1-benzyl-2-methoxy-2-oxoethyl]amino}-1-methoxy-2-methyl-3-oxopropyl]pyrrolidin-1-yl}-2-methoxy-1-[(1S)-1-methylpropyl]-4-oxobutyl}-N-methyl-L-valinamide] (H-[dIva]V[Dil][Dolaproine]F-OMe)
- IC50 [1]: 0.428 nM

Structure (SMILES): CC[C@H](C)[C@@H]([C@@H](CC(=O)N1CCC[C@H]1[C@H](OC)[C@@H](C)C(=O)N[C@@H](Cc1ccccc1)C(=O)O)OC)N(C)C(=O)[C@@H](NC(=O)[C@@]1(C)CCCN1C)C(C)C [#153, 1,2-dimethyl-D-prolyl-N-{(1S,2R)-4-{(2S)-2-[(1R,2R)-3-{[(1S)-1-carboxy-2-phenylethyl]amino}-1-methoxy-2-methyl-3-oxopropyl]pyrrolidin-1-yl}-2-methoxy-1-[(1S)-1-methylpropyl]-4-oxobutyl}-N-methyl-L-valinamide] (X1-V[Dil][Dolaproine]F-OH)
- IC50 (N87 (gastric cancer)): 47.3 nM
- IC50 [1]: 91.3 nM

Structure (SMILES): CC[C@H](C)[C@@H]([C@@H](CC(=O)N1CCC[C@H]1[C@H](OC)[C@@H](C)C(=O)NCCC1C=CC=CC=C1)OC)N(C)C(=O)[C@@H](NC(=O)[C@]1(C)CCCN1)C(C)C [#182, 2-methyl-L-prolyl-N-[(3R,4S,5S)-1-{(2S)-2-[(1R,2R)-3-{[2-(cyclohepta-2,4,6-trien-1-yl)ethyl]amino}-1-methoxy-2-methyl-3-oxopropyl]pyrrolidin-1-yl}-3-methoxy-5-methyl-1-oxoheptan-4-yl]-N-methyl-L-valinamide] (H-[αMeP]V[Dil][Dolaproine]-X8)
- IC50 (N87 (gastric cancer)): 0.148 nM
- IC50 [1]: 0.122 nM

Structure (SMILES): CC[C@H](C)[C@@H]([C@@H](CC(=O)N1CCC[C@H]1[C@H](OC)[C@@H](C)C(=O)N[C@@H](Cc1ccccc1)c1nccs1)OC)N(C)C(=O)[C@@H](NC(=O)[C@]1(C)CCCCN1)C(C)C [#188, (2S)—N-[(2S)-1-{[(3R,4S,5S)-3-methoxy-1-{(2S)-2-[(1R,2R)-1-methoxy-2-methyl-3-oxo-3-{[(1S)-2-phenyl-1-(1,3-thiazol-2-yl)ethyl]amino}propyl]pyrrolidin-1-yl}-5-methyl-1-oxoheptan-4-yl](methyl)amino}-3-methyl-1-oxobutan-2-yl]-2-methylpiperidine-2-carboxamide]
- IC50 [1]: 0.404 nM

Structure (SMILES): CC[C@H](C)[C@@H]([C@@H](CC(=O)N1CCC[C@H]1[C@H](OC)[C@@H](C)C(=O)N[C@@H](Cc1ccc2c(c1)CCCN2)C(=O)OC)OC)N(C)C(=O)[C@@H](NC(=O)[C@]1(C)CCCN1C)C(C)C [#207, 1,2-dimethyl-L-prolyl-N-[(3R,4S,5S)-3-methoxy-1-{(2S)-2-[(1R,2R)-1-methoxy-3-{[(2S)-1-methoxy-1-oxo-3-(1,2,3,4-tetrahydroquinolin-6-yl)propan-2-yl]amino}-2-methyl-3-oxopropyl]pyrrolidin-1-yl}-5-methyl-1-oxoheptan-4-yl]-N-methyl-L-valinamide]
- IC50 (N87 (gastric cancer)): 0.626 nM

Structure (SMILES): CC[C@H](C)[C@@H]([C@@H](CC(=O)N1CCC[C@H]1[C@H](OC)[C@@H](C)C(=O)N[C@@H](Cc1ccc(N)cc1)C(=O)OC)OC)N(C)C(=O)[C@@H](NC(=O)[C@]1(C)CCCN1C)C(C)C [#208, 1,2-dimethyl-L-prolyl-N-[(3R,4S,5S)-1-{(2S)-2-[(1R,2R)-3-{[(2S)-3-(4-aminophenyl)-1-methoxy-1-oxopropan-2-yl]amino}-1-methoxy-2-methyl-3-oxopropyl]pyrrolidin-1-yl}-3-methoxy-5-methyl-1-oxoheptan-4-yl]-N-methyl-L-valinamide] (NMeαMePro-V[Dil][Dolaproine][Phe(4-NH2)]-OMe)
- IC50 (N87 (gastric cancer)): 0.379 nM
- IC50 [1]: 0.336 nM

Structure (SMILES): CC[C@H](C)[C@@H]([C@@H](CC(=O)N1CCC[C@H]1[C@H](OC)[C@@H](C)C(=O)N[C@H](C(=O)OC)[C@@H]1Cc2ccccc21)OC)N(C)C(=O)[C@@H](NC(=O)C(C)(C)N)C(C)C [#227] (H-[Aib]V[Dil][Dolaproine][X12]-OMe)
- IC50 (N87 (gastric cancer)): 19 nM
- IC50 [1]: 12.9 nM

Structure (SMILES): CC[C@H](C)[C@@H]([C@@H](CC(=O)N1CCC[C@H]1[C@H](OC)[C@@H](C)C(=O)N[C@@H](Cc1ccccc1)C(=O)OC)OC)N(C)C(=O)[C@@H](NC(=O)C1(N)COC1)C(C)C [#233] (H-[Ac4c(3-oxa)]V[Dil][Dolaproine]F-OMe)
- IC50 (N87 (gastric cancer)): 8.41 nM
- IC50 [1]: 5.04 nM

Structure (SMILES): CC[C@H](C)[C@@H]([C@@H](CC(=O)N1CCC[C@H]1[C@H](OC)[C@@H](C)C(=O)N[C@@H](Cc1ccccc1)C(=O)NCc1c[nH]nn1)OC)N(C)C(=O)[C@@H](NC(=O)C(C)(C)NC)C(C)C [#240] (H-[NMeAib]V[Dil][Dolaproine]F-X14)
- IC50 (N87 (gastric cancer)): 19.9 nM
- IC50 [1]: 23.5 nM

Structure (SMILES): CC[C@H](C)[C@@H]([C@@H](CC(=O)N1CCC[C@H]1[C@H](OC)[C@@H](C)C(=O)N[C@@H](Cc1ccc(O)cc1)C(=O)OC)OC)N(C)C(=O)[C@@H](NC(=O)C(C)(C)NC)C(C)C [#243] (H-[NMeAib]V[Dil][Dolaproine]Y-OMe)
- IC50 (N87 (gastric cancer)): 1.3 nM
- IC50 [1]: 1.28 nM
